Read-outs that look alike come from different tables or passages of the source.
Molecular target: T1, human orexin type 2 receptor (hOX2R) (Homo sapiens, UniProt O43614)
T1 construct: expressed in transfected cells
T1 sequence (O43614 1-444): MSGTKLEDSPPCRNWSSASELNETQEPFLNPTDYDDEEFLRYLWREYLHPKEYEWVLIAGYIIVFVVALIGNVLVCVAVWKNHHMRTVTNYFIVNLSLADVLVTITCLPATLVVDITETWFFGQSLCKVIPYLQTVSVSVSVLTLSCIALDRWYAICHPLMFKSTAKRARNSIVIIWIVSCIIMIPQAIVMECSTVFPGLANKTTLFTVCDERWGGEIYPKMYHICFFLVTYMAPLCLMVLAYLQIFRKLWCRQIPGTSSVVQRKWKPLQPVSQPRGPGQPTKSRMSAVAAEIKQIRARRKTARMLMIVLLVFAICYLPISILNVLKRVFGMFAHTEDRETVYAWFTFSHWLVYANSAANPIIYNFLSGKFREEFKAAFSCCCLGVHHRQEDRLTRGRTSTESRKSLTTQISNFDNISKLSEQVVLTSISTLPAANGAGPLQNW
Assay: Measurement of orexin type 2 receptor agonist activity (FLIPR calcium fluorescence)
Format: cell-based
Settings: for EC50: read-out: hOx2 pEC50 (converted); for Emax: CHO, read-out: hOx2 Emax (%)
How it was run: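 Agonism was read as fluorescence in cells stably expressing human OX2R. E. is the response at 10 μM relative to orexin A as full agonist (100%).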

[1] = CHO cells expressing hOX2R, FLIPR calcium fluorescence

| EC50 [1] | Emax [1] | Structure (SMILES) | Emax |
| --- | --- | --- | --- |
| 1 to 10 nM | 90 to 100% | CS(=O)(=O)N[C@@H]1[C@H](Cc2cccc(-c3ccccc3)c2)N(C(=O)C23CC2C3)CC12CC2 (stereo partly drawn) [Compound 113, N-((6S,7S)-6-([1,1′-biphenyl]-3-ylmethyl)-5-(bicyclo[1.1.0]butane-1-carbonyl)-5-azaspiro[2.4]heptan-7-yl)methanesulfonamide] | – |
| 1 to 10 nM | 90 to 100% | N#C[C@]1(C(=O)N2CC3(CC3)[C@H](NS(=O)(=O)C(F)F)[C@@H]2Cc2cccc(-c3ccccc3)c2F)CCO1 [Compound 408, N-((6S,7S)-5-((S)-2-cyanooxetane-2-carbonyl)-6-((2-fluoro-[1,1′-biphenyl]-3-yl)methyl)-5-azaspiro[2.4]heptan-7-yl)-1,1-difluoromethanesulfonamide] | – |
| 10 to 100 nM | 80 to 90% | CC(F)(F)C(=O)N1CC2(CC2)C(NS(C)(=O)=O)C1Cc1cccc(-c2cccc(F)c2)c1F (racemic) [Compound 24, N-(6-((2,3′-difluoro-[1,1′-biphenyl]-3-yl)methyl)-5-(2,2-difluoropropanoyl)-5-azaspiro[2.4]heptan-7-yl)methanesulfonamide] | – |
| 1 to 10 nM | 90 to 100% | O=C([C@H]1C[C@H](F)C1)N1CC2(CC2)[C@H](NS(=O)(=O)C(F)F)[C@@H]1Cc1cccc(-c2ccccc2)c1F [Compound 182, 1,1-difluoro-N-((6S,7S)-6-((2-fluoro-[1,1′-biphenyl]-3-yl)methyl)-5-((1r,3r)-3-fluorocyclobutane-1-carbonyl)-5-azaspiro[2.4]heptan-7-yl)methanesulfonamide] | – |
| 10 to 100 nM | 90 to 100% | C[C@]1(NC(=O)N2CC3(CC3)[C@H](NS(C)(=O)=O)[C@@H]2Cc2cccc(-c3ccccc3)c2F)CCOC1 [Compound 320, (6S,7S)-6-((2-fluoro-[1,1′-biphenyl]-3-yl)methyl)-7-(methylsulfonamido)-N-((S)-3-methyltetrahydrofuran-3-yl)-5-azaspiro[2.4]heptane-5-carboxamide] | – |
| 0.0794 to 1 nM | 90 to 100% | O=C([C@H]1CCO1)N1CC2(CC2)[C@H](NS(=O)(=O)CF)[C@@H]1Cc1cccc(-c2cccc(F)c2)c1F [Compound 132, N-((6S,7S)-6-((2,3′-dfluoro-1,1′-biphenyl-3-yl)methyl)-5-((R)-oxetane-2-carbonyl)-5-azaspiro[2.4]heptan-7-yl)-1-fluoromethanesulfonamide] | – |
| 1 to 10 nM | 90 to 100% | CN(C)S(=O)(=O)NC1C(Cc2cccc(-c3ccccc3)c2F)N(C(=O)C2CCC2)CC12CC2 (racemic) [Compound 92, N-(5-(cyclobutanecarbonyl)-6-((2-fluoro-[1,1′-biphenyl]-3-yl)methyl)-5-azaspiro[2.4]heptan-7-yl)-N,N-dimethylsulfuric diamide] | – |
| 1 to 10 nM | 90 to 100% | [2H]c1c([2H])c([2H])c(-c2cccc(C[C@H]3[C@@H](NS(=O)(=O)C(F)F)C4(CC4)CN3C(=O)[C@H]3CCO3)c2F)c([2H])c1[2H] [Compound 173, 1,1-difluoro-N-((6S,7S)-6-((2-fluoro-[1,1′-biphenyl]-3-yl-2′,3′,4′,5′,6′-d5)methyl)-5-((R)-oxetane-2-carbonyl)-5-azaspiro[2.4]heptan-7-yl)methanesulfonamide] | – |
| 1 to 10 nM | 90 to 100% | CS(=O)(=O)N[C@@H]1[C@H](Cc2cccc(-c3ccccc3)c2)N(C(=O)[C@H](O)C2CC2)CC12CC2 [Compound 61, N-((6S,7S)-6-([1,1′-biphenyl]-3-ylmethyl)-5-((R)-2-cyclopropyl-2-hydroxyacetyl)-5-azaspiro[2.4]heptan-7-yl)methanesulfonamide] | – |
| 1 to 10 nM | 90 to 100% | O=C([C@H](O)CF)N1CC2(CC2)[C@H](NS(=O)(=O)C(F)F)[C@@H]1Cc1cc(F)cc(-c2ccccc2)c1F [Compound 390, N-((6S,7S)-6-((2,5-difluoro-[1,1′-biphenyl]-3-yl)methyl)-5-((S)-3-fluoro-2-hydroxypropanoyl)-5-azaspiro[2.4]heptan-7-yl)-1,1-difluoromethanesulfonamide] | – |
| 1 to 10 nM | 90 to 100% | O=C(NC(CF)CF)N1CC2(CC2)[C@H](NS(=O)(=O)CF)[C@@H]1Cc1cccc(-c2ccccc2)c1F [Compound 369, (6S,7S)-N-(1,3-difluoropropan-2-yl)-6-((2-fluoro-[1,1′-biphenyl]-3-yl)methyl)-7-((fluoromethyl)sulfonamido)-5-azaspiro[2.4]heptane-5-carboxamide] | – |
| 10 to 100 nM | 90 to 100% | CC(C)(O)C(=O)N1CC2(CC2)[C@H](NS(=O)(=O)CF)[C@@H]1Cc1cc(F)cc(-c2cccc(F)c2)c1F [Compound 210, 1-fluoro-N-((6S,7S)-5-(2-hydroxy-2-methylpropanoyl)-6-((2,3′,5-trifluoro-[1,1′-biphenyl]-3-yl)methyl)-5-azaspiro[2.4]heptan-7-yl)methanesulfonamide] | – |
| 1 to 10 nM | 90 to 100% | O=C([C@H]1CCO1)N1CC2(CC2)[C@H](NS(=O)(=O)CF)[C@@H]1Cc1cc(F)cc(-c2cc(F)cc(F)c2)c1F [Compound 227, 1-fluoro-N-((6S,7S)-5-((R)-oxetane-2-carbonyl)-6-((2,3′,5,5′-tetrafluoro-[1,1′-biphenyl]-3-yl)methyl)-5-azaspiro[2.4]heptan-7-yl)methanesulfonamide] | – |
| 10 to 100 nM | 80 to 90% | CN(C1CC1)S(=O)(=O)N[C@@H]1[C@H](Cc2cccc(-c3ccccc3)c2)N(C(=O)[C@H]2CCO2)CC12CC2 [Compound 97] | – |
| 0.0794 to 1 nM | 90 to 100% | O=C([C@H](O)CF)N1CC2(CC2)[C@H](NS(=O)(=O)C(F)F)[C@@H]1Cc1cccc(-c2cc(F)cc(F)c2)c1F [Compound 392, 1,1-difluoro-N-((6S,7S)-5-((S)-3-fluoro-2-hydroxypropanoyl)-6-((2,3′,5′-trifluoro-[1,1′-biphenyl]-3-yl)methyl)-5-azaspiro[2.4]heptan-7-yl)methanesulfonamide] | – |
| 1 to 10 nM | 90 to 100% | COC[C@@H](C)NC(=O)N1CC2(CC2)[C@H](NS(C)(=O)=O)[C@@H]1Cc1cccc(-c2ccccc2)c1F [Compound 325, (6S,7S)-6-((2-fluoro-[1,1′-biphenyl]-3-yl)methyl)-N-((R)-1-methoxypropan-2-yl)-7-(methylsulfonamido)-5-azaspiro[2.4]heptane-5-carboxamide] | – |
| 1 to 10 nM | 90 to 100% | O=C([C@H]1CCO1)N1CC2(CC2)[C@H](NS(=O)(=O)CF)[C@@H]1Cc1cccc(-c2cccc(F)c2F)c1F [Compound 168, 1-fluoro-N-((6S,7S)-5-((R)-oxetane-2-carbonyl)-6-((2,2′,3′-trifluoro-[1,1′-biphenyl]-3-yl)methyl)-5-azaspiro[2.4]heptan-7-yl)methanesulfonamide] | – |
| 0.0794 to 1 nM | 90 to 100% | CS(=O)(=O)N[C@@H]1[C@H](Cc2cccc(-c3ccccc3)c2F)N(C(=O)N2CC[C@H]2CF)CC12CC2 [Compound 80, N-((6S,7S)-6-((2-fluoro-[1,1′-biphenyl]-3-yl)methyl)-5-((S)-2-(fluoromethyl)azetidine-1-carbonyl)-5-azaspiro[2.4]heptan-7-yl)methanesulfonamide] | – |

| Structure (SMILES) | EC50 [1] | Emax [1] | Emax |
| --- | --- | --- | --- |
| O=C([C@H]1CCO1)N1CC2(CC2)[C@H](NS(=O)(=O)C(F)F)[C@@H]1Cc1cccc(-c2ccccc2)c1 [Compound 115, N-((6S,7S)-6-([1,1′-biphenyl]-3-ylmethyl)-5-((R)-oxetane-2-carbonyl)-5-azaspiro[2.4]heptan-7-yl)-1,1-difluoromethanesulfonamide] | 1 to 10 nM | – | 90 to 100% |
